The experiment addresses T1, human Orexin-2 receptor (Homo sapiens, UniProt O43614).
T1 construct: expressed in transfected cells; host or cells: HEK293 cells (transient transfection, Genejuice); membranes
T1 sequence (O43614 1-444): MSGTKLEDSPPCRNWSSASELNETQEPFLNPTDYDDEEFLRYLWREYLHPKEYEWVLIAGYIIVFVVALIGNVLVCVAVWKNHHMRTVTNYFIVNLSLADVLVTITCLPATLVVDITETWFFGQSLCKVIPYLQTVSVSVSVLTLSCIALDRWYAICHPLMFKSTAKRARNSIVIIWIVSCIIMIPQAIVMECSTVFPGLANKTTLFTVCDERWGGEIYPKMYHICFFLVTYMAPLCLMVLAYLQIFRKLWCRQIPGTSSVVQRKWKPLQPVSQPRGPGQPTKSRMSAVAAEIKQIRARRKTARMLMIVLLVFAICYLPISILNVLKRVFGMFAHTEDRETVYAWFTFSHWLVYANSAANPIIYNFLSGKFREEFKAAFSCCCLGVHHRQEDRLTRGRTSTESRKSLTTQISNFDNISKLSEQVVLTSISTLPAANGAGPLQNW
The experiment can be described thus: 3H-EMPA radioligand binding assay. Particulars: 3H-EMPA displacement, membranes of HEK293 cells transfected with human Orexin-2 receptor; KI by Cheng-Prussoff; read-out: OX2 pKi ave (converted). The method, boiled down:
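Membranes from HEK293 cells transiently transfected with human orexin-2 receptor cDNA, assayed with [3H]EMPA. Bound ligand collected on PEI-treated GF/B filters and counted by scintillation; IC50 from inhibition curves, Ki by Cheng-Prusoff.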
Take `COc1ccc(N2C(=O)N(Cc3ccccc3C)c3ccccc3S2(=O)=O)cc1OC` [Example 18, 2-(3,4-dimethoxyphenyl)-4-(2-methylbenzyl)-2H-1,2,4-benzothiadiazin-3(4H)-one 1,1-dioxide]: the Ki is 14.8 nM.
For the compound `Cc1cc(CN2C(=O)N(Cc3ccc(Cl)cc3F)c3ccccc3S2(=O)=O)n(C)n1` [Example 134, 4-(4-Chloro-2-fluorobenzyl)-2-[(1,3-dimethyl-1H-pyrazol-5-yl)methyl]-2H-1,2,4-benzothiadiazin-3(4H)-one 1,1-dioxide], the Ki is 39.8 nM.
Regarding `COc1cc(N2C(=O)N(Cc3c(F)cccc3Cl)c3ccccc3S2(=O)=O)cc(OC)n1` [Example 166, 4-(2-Chloro-6-fluorobenzyl)-2-(2,6-dimethoxypyridin-4-yl)-2H-1,2,4-benzothiadiazin-3(4H)-one 1,1-dioxide], the Ki was 2.69 nM.
For the compound `COc1cc(N2C(=O)N(Cc3c(F)cc(F)cc3Cl)c3ccccc3S2(=O)=O)cc(OC)n1` [Example 157, 4-(2-Chloro-4,6-difluorobenzyl)-2-(2,6-dimethoxypyridin-4-yl)-2H-1,2,4-benzothiadiazin-3(4H)-one 1,1-dioxide], the Ki is 0.575 nM.
Under `CS(=O)(=O)c1cccc(N2C(=O)N(Cc3c(F)cc(F)cc3F)c3ccccc3S2(=O)=O)c1` [Example 112, 2-[3-(Methylsulfonyl)phenyl]-4-(2,4,6-trifluorobenzyl)-2H-1,2,4-benzothiadiazin-3(4H)-one 1,1-dioxide] stands 26.9 nM; under `Cc1cc(C)cc(N2C(=O)N(Cc3c(F)cccc3Cl)c3ccccc3S2(=O)=O)c1` [Example 27, 4-(2-chloro-6-fluorobenzyl)-2-(3,5-dimethylphenyl)-2H-1,2,4-benzothiadiazin-3(4H)-one 1,1-dioxide], 0.631 nM; under `COc1cc(N2C(=O)N(Cc3c(F)cc(F)cc3Cl)c3ncccc3S2(=O)=O)cc(OC)n1` [Example 180, 4-(2-Chloro-4,6-difluorobenzyl)-2-(2,6-dimethoxypyridin-4-yl)-2H-pyrido[2,3-e][1,2,4]thiadiazin-3(4H)-one 1,1-dioxide], 2.04 nM.
Then `COc1cc(N2C(=O)N(Cc3c(F)cc(F)cc3F)c3ncccc3S2(=O)=O)cc(OC)n1` [Example 98, 2-(2,6-Dimethoxypyridin-4-yl)-4-(2,4,6-trifluorobenzyl)-2H-pyrido[2,3-e][1,2,4]thiadiazin-3(4H)-one 1,1-dioxide], with 1.48 nM; and `Cc1noc(C)c1CCN1C(=O)N(Cc2c(F)cccc2F)c2ccccc2S1(=O)=O` [Example 120, 4-(2,6-Difluorobenzyl)-2-[2-(3,5-dimethyl-1,2-oxazol-4-yl)ethyl]-2H-1,2,4-benzothiadiazin-3(4H)-one 1,1-dioxide], with 178 nM; and `Cc1ccc(N2C(=O)N(Cc3ccccc3F)c3ccccc3S2(=O)=O)cc1Cl` [Example 53, 4-(2-fluorobenzyl)-2-(3-chloro-4-methylphenyl)-2H-1,2,4-benzothiadiazin-3(4H)-one 1,1-dioxide], with 31.6 nM.
Then `COc1cc(N2C(=O)N(Cc3c(F)cccc3Cl)c3ccccc3S2(=O)=O)cc(OC)c1OC` [Example 78, 4-(2-Chloro-6-fluorobenzyl)-2-(3,4,5-trimethoxyphenyl)-2H-1,2,4-benzothiadiazin-3(4H)-one 1,1-dioxide], with 4.07 nM; and `COc1ccc(N2C(=O)N(Cc3c(Cl)cncc3Cl)c3ccccc3S2(=O)=O)cc1OC` [Example 90, 4-[(3,5-Dichloropyridin-4-yl)methyl]-2-(3,4-dimethoxyphenyl)-2H-1,2,4-benzothiadiazin-3(4H)-one 1,1-dioxide], with 3.02 nM.
Consider `COc1cc(F)c(CN2C(=O)N(c3ccc(OC)c(OC)c3)S(=O)(=O)c3ccccc32)c(Cl)c1` [Example 113, 4-(2-Chloro-6-fluoro-4-methoxybenzyl)-2-(3,4-dimethoxyphenyl)-2H-1,2,4-benzothiadiazin-3(4H)-one 1,1-dioxide], for which the Ki was 0.0912 nM.
Under `COc1ccc(N2C(=O)N(Cc3c(F)cccc3F)c3ncccc3S2(=O)=O)nc1OC` [Example 169, 4-(2,-Difluorobenzyl)-2-(5,6-dimethoxypyridin-2-yl)-2H-pyrido[2,3-e][1,2,4]thiadiazin-3(4H)-one 1,1-dioxide] stands 0.851 nM; under `COc1cc(N2C(=O)N(Cc3c(F)cc(F)cc3Cl)c3ccccc3S2(=O)=O)cnc1OC` [Example 155, 4-(2-Chloro-4,6-difluorobenzyl)-2-(5,6-dimethoxypyridin-3-yl)-2H-1,2,4-benzothiadiazin-3(4H)-one 1,1-dioxide], 1.74 nM; under `COc1ccc(N2C(=O)N(Cc3c(C)cccc3F)c3ccccc3S2(=O)=O)cc1OC` [Example 79, 4-(2-Fluoro-6-methylbenzyl)-2-(3,4-methoxyphenyl)-2H-1,2,4-benzothiadiazin-3(4H)-one 1,1-dioxide], 0.389 nM.
With `CSc1cccc(N2C(=O)N(CC3CCC3)c3ccccc3S2(=O)=O)c1` [Example 61, 4-(Cyclobutylmethyl)-2-[3-(methylsulfanyl)phenyl]-2H-1,2,4-benzothiadiazin-3(4H)-one 1,1-dioxide], the Ki was 269 nM.
Under `COc1ccc(N2C(=O)N(Cc3c(F)cncc3F)c3ccccc3S2(=O)=O)cc1OC` [Example 85, 4-[(3,5-Difluoropyridin-4-yl)methyl]-2-(3,4-dimethoxyphenyl)-2H-1,2,4-benzothiadiazin-3(4H)-one 1,1-dioxide] stands 60.3 nM; under `COC(=O)c1ccc(OC)c(CN2C(=O)N(c3cccc(SC)c3)S(=O)(=O)c3ccccc32)c1` [Example 52, methyl 3-({2-[3-(methylsulfanyl)phenyl]-1,1-dioxido-3-oxo-2,3-dihydro-4H-1,2,4-benzothiadiazin-4-yl}methyl)-4-methoxybenzoate], 2.63 nM; under `CC1(CN2C(=O)N(Cc3c(F)cccc3Cl)c3ccccc3S2(=O)=O)COC1` [Example 118, 4-(2-Chloro-6-fluorobenzyl)-2-[(3-methyloxetan-3-yl)methyl]-2H-1,2,4-benzothiadiazin-3(4H)-one 1,1-dioxide], 372 nM.
Under `COc1cc(F)c(CN2C(=O)N(c3cccc(SC)c3)S(=O)(=O)c3ccccc32)c(F)c1` [Example 109, 4-(2,6-Difluoro-4-methoxybenzyl)-2-[3-(methylsulfanyl)phenyl]-2H-1,2,4-benzothiadiazin-3(4H)-one 1,1-dioxide] stands 3.24 nM; under `COc1cc(OC)cc(N2C(=O)N(Cc3ccccc3Cl)c3ccccc3S2(=O)=O)c1` [Example 16, 4-(2-chlorobenzyl)-2-(3,5-dimethoxyphenyl)-2H-1,2,4-benzothiadiazin-3(4H)-one 1,1-dioxide], 31.6 nM; under `COc1cccc(N2C(=O)N(Cc3ccc(OC)c(F)c3)c3ccccc3S2(=O)=O)c1` [Example 10, 4-(3-fluoro-4-methoxybenzyl)-2-(3-methoxyphenyl)-2H-1,2,4-benzothiadiazin-3(4H)-one 1,1-dioxide], 117 nM.
As to `O=C1N(Cc2c(F)cccc2Cl)c2ccccc2S(=O)(=O)N1c1ccccc1` [Example 26, 4-(2-chloro-6-fluorobenzyl)-2-phenyl-2H-1,2,4-benzothiadiazin-3(4H)-one 1,1-dioxide], the Ki was 79.4 nM.
`O=C1N(Cc2c(F)cccc2Cl)c2ccccc2S(=O)(=O)N1Cc1ccccn1` [Example 128, 4-(2-Chloro-6-fluorobenzyl)-2-(pyridin-2-ylmethyl)-2H-1,2,4-benzothiadiazin-3(4H)-one 1,1-dioxide]: the Ki is 79.4 nM.
Then `COc1ccc(N2C(=O)N(Cc3c(F)cc(C)cc3Cl)c3ccccc3S2(=O)=O)cn1` [Example 135, 4-(2-Chloro-6-fluoro-4-methylbenzyl)-2-(6-methoxypyridin-3-yl)-2H-1,2,4-benzothiadiazin-3(4H)-one 1,1-dioxide], with 13.8 nM; and `CCc1cccc(N2C(=O)N(Cc3ccc(OC)c(F)c3)c3ccccc3S2(=O)=O)c1` [Example 11, 2-(3-ethylphenyl)-4-(3-fluoro-4-methoxybenzyl)-2H-1,2,4-benzothiadiazin-3(4H)-one 1,1-dioxide], with 47.9 nM; and `Cc1cccc(N2C(=O)N(Cc3c(F)cccc3Cl)c3ccccc3S2(=O)=O)c1` [Example 31, 4-(2-chloro-6-fluorobenzyl)-2-(3-methylphenyl)-2H-1,2,4-benzothiadiazin-3(4H)-one 1,1-dioxide], with 10.5 nM.
Take `COc1ccc(N2C(=O)N(Cc3ncc(Br)cc3F)c3ccccc3S2(=O)=O)cc1OC` [Example 89, 4-[(5-Bromo-3-fluoropyridin-2-yl)methyl]-2-(3,4-dimethoxyphenyl)-2H-1,2,4-benzothiadiazin-3(4H)-one 1,1-dioxide]: the Ki is 38.9 nM.
Then `CCc1ccccc1N1C(=O)N(Cc2c(F)cccc2Cl)c2ccccc2S1(=O)=O` [Example 33, 4-(2-chloro-6-fluorobenzyl)-2-(2-ethylphenyl)-2H-1,2,4-benzothiadiazin-3(4H)-one 1,1-dioxide], with 28.2 nM.
`COc1ccc(N2C(=O)N(Cc3c(F)cc(F)cc3F)c3ncccc3S2(=O)=O)nc1OC` [Example 99, 2-(5,6-Dimethoxypyridin-2-yl)-4-(2,4,6-trifluorobenzyl)-2H-pyrido[2,3-e][1,2,4]thiadiazin-3(4H)-one 1,1-dioxide]: the Ki was 1.55 nM.

(Values after patent US10316028B2, “Orexin receptor antagonists” (Heptares Therapeutics Limited, priority 2012, dated 2019).)
